From patent publication US7906525B2, “Reduction of imiquimod impurities at four months using refined oleic acid” (priority 2004, dated 2011) come the findings set out here.

≈ marks a conversion by molar mass, not a printed value.

The data set is described as follows: Solubility in water. Format: physicochemical.

For orientation: solubility means how much of the substance goes into solution per volume.

Take `CC(C)Cn1cnc2c(N)nc3ccccc3c21` [imiquimod, 1-(2-methylpropyl)-1H-imidazo[4,5-c]quinolin-4-amine]: the solubility worked out at 0.79 µg/mL (≈ 3.29 µM).
